Non-standard residues stand in square brackets, D forms with d. Residues, ends and D or L forms follow the SMILES beside them. No end group written: not given here. Bip = N[C@@H](Cc1ccc(-c2ccccc2)cc1)C(=O)O; dBip = N[C@H](Cc1ccc(-c2ccccc2)cc1)C(=O)O; Dip = N[C@H](C(=O)O)C(c1ccccc1)c1ccccc1
Key:
Type in all cases: cell-based, human
HL-60/ADR = test: In vitro cytotoxic activity, MTS assay; resistance index; details: HL-60/ADR vs sensitive HL-60 (doxorubicin resistance)
Description: (§1) Tumor cells were grown as adherent monolayers or as suspensions at 37° C. in a humidified atmosphere (5% CO2, 95% air). The culture medium was RPMI 1640 containing 2 mM L-glutamine (Lonza, Belgium) and supplemented with 10% fetal bovine serum (FBS, Lonza). For experimental use, the adherent cells were detached from the culture flask by a 5-minute treatment with trypsin-versene (Lonza), diluted in Hanks' medium without calcium or magnesium (Lonza) and neutralized by addition of complete culture medium. Cells were counted in a hemocytometer and their viability was assessed by 0.25% trypan blue exclusion.
(§2) Tumor cells were plated in 96-well flat-bottom microtitration plates (Nunc, Dutscher, Brumath, France) and incubated at 37° C. for 24 hours before treatment in 190 μl of drug-free culture medium supplemented or not with 10% FBS for adherent or suspension growing cell lines, respectively.
(§3) The adherent cell lines were washed once with 200 μl FBS-free culture medium before treatment. Tumor cells were incubated for 4 hours with 10 concentrations of compounds in ¼ dilution step with a top dose of 400 μM (range 4×10^−4 to 4×10^−10 M), with 1% (final concentration) Triton X-100 as positive control and FBS-free culture medium as negative control. The cells (190 μl) were incubated in a 200 μl final volume of FBS-free culture medium containing test substances at 37° C. under 5% CO2.
(§4) Three independent experiments were performed, each concentration being tested in quadruplicate. Control cells were treated with vehicle alone. At the end of treatments, the cytotoxic activity was evaluated by a MTS assay (see § 3.3).
(§5) Like MTT, MTS is bioreduced by cells into a formazan product that is directly soluble in culture medium without processing, unlike MTT.
(§6) At the end of the cells treatment, 40 μl of a 0.22 μm filtered freshly combined solution of MTS (20 ml at 2 mg/ml, Ref G1111, Batch 235897, Exp 03/2009, Promega, Charbonnières, France) and PMS (1 ml at 0.92 mg/ml, Ref P9625, Batch 065K0961, Sigma) in Dulbecco's Phosphate Buffered Saline (DPBS, Ref 17-513Q, Batch 6MB0152, Cambrex), were added in each well. Culture plates were incubated for 2 h at 37° C. Absorbency (OD) were measured at 490 nm in each well using VICTOR^3TM 1420 multilabeled counter (Wallac, PerkinElmer, Courtaboeuf, France).
(§7) [formula] • The OD values are the mean of 4 experimental measurements. • IC50: drug concentration to obtain a 50% inhibition of cell proliferation.
(§8) The dose-response curves were plotted using XLFit 3 (IDBS, United Kingdom). The IC50 determination values were calculated using the XLFit 3 software from semi-log curves. Individual IC50 determination values as well as mean and SD values were generated.
(§9) Resistance index was calculated using the following formula: […]
(§10) Resistance index was calculated for each compound for each couple of sensitive and resistant cell lines. Individual resistance index was calculated when IC50 values of both sensitive and corresponding resistant cell lines were determined within same experiment. In addition, resistance index was also calculated ratio of mean IC50 values obtained during three independent experiments.

IGROV-1/CDDP = IGROV-1/CDDP vs IGROV-1 (cisplatin resistance)
Description: as §1, §2, §3, §4, §5, §6, §7, §8, §9, §10

MCF-7/mdr = MCF-7/mdr vs sensitive MCF-7 (doxorubicin resistance)
Description: as §1, §2, §3, §4, §5, §6, §7, §8, §9, §10

CCRF-CEM/VLB = test: Resistance index from MTS cytotoxicity; details: CCRF-CEM/VLB vs CCRF-CEM
Description: as §1, with “exclusion. […]” for “exclusion.”
Three independent experiments were performed, each concentration being tested in quadruplicate. […] At the end of treatments, the cytotoxic activity was evaluated by a MTS assay (see § 3.3). […]
as §6, with “Culture plates were incubated for 2 h at 37° C.” left out, “France). […]” for “France).”
as §9

A375 cells = test: Confocal microscopy, fluorescence-labeled peptide internalization; details: 1.5 and 3 μM
Description: Fixed cells, fluorescence-labeled peptide-Subconfluential A375 cells were seeded at 8,000 cells/well as above, and transfected on the second day using the Lipofectamine LTX with Plus transfection reagents (Invitrogen) following the manufacturer's protocol. The mitochondria were labeled using the pDsRed2-Mito, and the nucleus was labeled using the GFP-Histon2B plasmid (Imaging Platform, University of Tromsø). A day after transfection, cells were washed twice with serum-free RPMI, and treated at different concentration and incubation periods with LTX-315 Pacific Blue or LTX-328 Pacific Blue.
Control cells were treated with unlabeled LTX-315 and also with serum-free RPMI only. After incubation, cells were fixed with 4% paraformaldehyde in PBS, and the wells were covered with Prolong Gold antifade (Invitrogen). Cells were further analyzed by use of a Leica TCS SP5 confocal microscope, with a […] objective. Pacific Blue, GFP and Ds Red were excited using UV, with 488 and 561 lasers, and fluorescence channels were sequentially detected using the following band passes: UV: 420-480 nm (with attenuation), 488: 501-550 nm and 561: 576-676 nm.

Molecule: NCCCC[C@H](NC(=O)[C@H](Cc1c[nH]c2ccccc12)NC(=O)[C@H](CCCCN)NC(=O)[C@H](CCCCN)NC(=O)[C@@H](NC(=O)[C@H](Cc1c[nH]c2ccccc12)NC(=O)[C@H](CCCCN)NC(=O)[C@H](CCCCN)NC(=O)[C@@H](N)Cc1c[nH]c2ccccc12)C(c1ccccc1)c1ccccc1)C(N)=O [LTX-302, W-K-K-W-Dip-K-K-W-K-NH2] (H-WKKW[Dip]KKWK-NH2; N-terminus assumed)
- Resistance index (RI) (HL-60/ADR): 1.31
- Resistance index (RI) (IGROV-1/CDDP): 0.33
- Resistance index (RI) (MCF-7/mdr): 1.23

Molecule: NCCCC[C@H](NC(=O)[C@H](Cc1c[nH]c2ccccc12)NC(=O)[C@H](Cc1c[nH]c2ccccc12)NC(=O)[C@H](CCCCN)NC(=O)[C@H](CCCCN)NC(=O)[C@H](Cc1c[nH]c2ccccc12)NC(=O)[C@H](Cc1ccc(-c2ccccc2)cc1)NC(=O)[C@H](CCCCN)NC(=O)[C@@H](N)CCCCN)C(N)=O [LTX-313, K-K-Bip-W-K-K-W-W-K-NH2] (H-KK[Bip]WKKWWK-NH2; N-terminus assumed)
- Resistance index (RI) (HL-60/ADR): 1.16
- Resistance index (RI) (IGROV-1/CDDP): 0.49
- Resistance index (RI) (MCF-7/mdr): 1.24
- Resistance index (RI) (CCRF-CEM/VLB): 0.76

Molecule: N=C(N)NCCC[C@H](NC(=O)[C@H](Cc1c[nH]c2ccccc12)NC(=O)[C@H](Cc1c[nH]c2ccccc12)NC(=O)[C@H](CCCNC(=N)N)NC(=O)[C@H](CCCNC(=N)N)NC(=O)[C@@H](NC(=O)[C@H](Cc1c[nH]c2ccccc12)NC(=O)[C@H](CCCNC(=N)N)NC(=O)[C@@H](N)CCCNC(=N)N)C(c1ccccc1)c1ccccc1)C(N)=O [LTX-320, R-R-W-Dip-R-R-W-W-R-NH2] (H-RRW[Dip]RRWWR-NH2; N-terminus assumed)
- Resistance index (RI) (HL-60/ADR): 0.90
- Resistance index (RI) (IGROV-1/CDDP): 0.49
- Resistance index (RI) (MCF-7/mdr): 1.19

Molecule: NCCCC[C@@H](N)C(=O)N[C@H](CCCCN)C(=O)N[C@H](Cc1ccc(-c2ccccc2)cc1)C(=O)N[C@H](Cc1c[nH]c2ccccc12)C(=O)N[C@H](CCCCN)C(=O)N[C@H](CCCCN)C(=O)N[C@H](Cc1c[nH]c2ccccc12)C(=O)N[C@H](Cc1c[nH]c2ccccc12)C(=O)N[C@H](CCCCN)C(N)=O [LTX-329, k-k-bip-w-k-k-w-w-k-NH2] (H-[dK][dK][dBip][dW][dK][dK][dW][dW][dK]-NH2; N-terminus assumed)
- Resistance index (RI) (HL-60/ADR): 0.80
- Resistance index (RI) (IGROV-1/CDDP): 0.46
- Resistance index (RI) (MCF-7/mdr): 1.07
- Resistance index (RI) (CCRF-CEM/VLB): 0.76

Molecule: KAQ[Dip]QKQAW-NH2 [LTX-328, reference compound]
- internalization of Pacific Blue-labeled peptide (A375 cells): did not demonstrate any internalization
